Values of other authors in patent US8673971B2, “Derivatives of 4-nerolidylcatechol, pharmaceutical compositions comprising them and process for producing the same” (Instituto Nacional de Pesquisa de Amazonia INPA, priority 2007, dated 2014).

How the values were obtained:
[1] = tests based on co-oxidation of substrate (β-carotene, linoleic acid); greater than α-tocoferol

In the case of C=CC(C)(CCC=C(C)CCC=C(C)C)c1ccc(O)c(O)c1 (centres unmarked) [4-nerolidylcatechol], the water solubility is listed as “low water solubility” and the “in vitro antioxidant activity relative to α-tocoferol” value [1] is listed as 20 times.
